Test results reported in publication PMC6776155 (Breeding Science, 2019).

Tested on: TrGDH (His6-TF-TrGDH)
Assay: NADPH oxidation at […] nm, Lineweaver-Burk
Format: biochemical, Trichurus sp.
Details: amination; 2-OG 1-10 mM, 100 μM NADPH, NH4Cl co-substrate, Tris pH 8.0, 25 °C

Km: 1570 ± 190 µM
SMILES: O=C(O)CCC(=O)C(=O)O [2-oxoglutarate]
